Results taken from patent US6461997B1, “Triazole sulfones having herbicidal activity” (Monsanto Technology LLC, priority 1999, dated 2002).

test system: ECHCG (barnyardgrass); assay: Pre-emergence herbicidal activity, warm season; type: in vivo, Echinochloa crus-galli; conditions: GR80 = lowest tested rate (300, 100, 30, 10 g/ha) with 80% or greater inhibition; approx. 14 days after treating; 30/21° C.
In short: (§1)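 GR80 values derive from percent inhibition relative to untreated plants, read roughly 14 days after sowing and pre-emergence soil-surface treatment (compound in 50:50 acetone/water; rates typically 10, 30, 100, 300 g/ha). Warm-season weeds grew at 30/21° C day/night, cool-season ones at 18/13° C; an asterisk marks activity without reaching 80% at the highest rate.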

Structure (SMILES) | Pre-emergence activity (GR80) ECHCG
CCSC(F)(F)S(=O)(=O)c1ncn(C(=O)N(CC)CC)n1 [Example 8, 1-(N,N-diethylcarbamoyl)-3-[difluoro(ethylthio)methylsulfonyl]-1,2,4-triazole] | 100 g/ha
CCN(CC)C(=O)n1cnc(S(=O)(=O)C(F)(F)SCC(=O)OC)n1 [Example 11] | * (activity observed, at least at highest rate, but <80% inhibition)

test system: STEME (common chickweed); assay: Pre-emergence herbicidal activity, cool season; type: in vivo, Stellaria media; conditions: lowest tested rate with 80% or greater inhibition; rates 300, 100, 30, 10 g/ha; about 14 days
In short: as §1

Structure (SMILES) | Pre-emergence activity GR80, STEME
CCSC(F)(F)S(=O)(=O)c1ncn(C(=O)N(CC)CC)n1 [Example 8, 1-(N,N-diethylcarbamoyl)-3-[difluoro(ethylthio)methylsulfonyl]-1,2,4-triazole] | [empty]
CCN(CC)C(=O)n1cnc(S(=O)(=O)C(F)(F)SCC(=O)OC)n1 [Example 11] | [empty]

test system: CHEAL (common lambsquarters); assay: Pre-emergence herbicidal activity, warm season; type: in vivo, Chenopodium album; conditions: GR80 = lowest tested rate (300, 100, 30, 10 g/ha) with 80% or greater inhibition; approx. 14 days after treating; 30/21° C.
In short: as §1

Structure (SMILES) | Pre-emergence activity (GR80) CHEAL
CCSC(F)(F)S(=O)(=O)c1ncn(C(=O)N(CC)CC)n1 [Example 8, 1-(N,N-diethylcarbamoyl)-3-[difluoro(ethylthio)methylsulfonyl]-1,2,4-triazole] | 100 g/ha
CCN(CC)C(=O)n1cnc(S(=O)(=O)C(F)(F)SCC(=O)OC)n1 [Example 11] | 300 g/ha

test system: AVEFA (wild oat); assay: Post-emergence herbicidal activity, cool season; type: in vivo, Avena fatua; conditions: abraded plants sprayed at 300, 100, 30 and 10 g/ha; about 14 days after treatment
In short: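 Greenhouse test on sand-abraded seedlings sprayed 9 to 14 days after planting at 300, 100, 30 and 10 g/ha; GR80 from percent inhibition versus controls at approximately 14 days.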

Structure (SMILES) | Post-emergence activity GR80, AVEFA
CCSC(F)(F)S(=O)(=O)c1ncn(C(=O)N(CC)CC)n1 [Example 8, 1-(N,N-diethylcarbamoyl)-3-[difluoro(ethylthio)methylsulfonyl]-1,2,4-triazole] | [empty]
CCN(CC)C(=O)n1cnc(S(=O)(=O)C(F)(F)SCC(=O)OC)n1 [Example 11] | [empty]

test system: rice (ORYSA); assay: Selectivity test, PPI, warm season crop; type: in vivo, Oryza sativa; conditions: Oryza sativa; PPI application, 30 g/ha; read-out: Percent inhibition ORYSA
Protocol: (§2) A pre-prepared topsoil mixture (described above) was placed in a pot and compacted to a depth of 1.0 to 1.25 cm from the top of the pot. Seeds of each of several monocotyledonous and dicotyledonous annual plant species were placed on top of the soil. A sufficient quantity of soil to cover the seeds and level fill the pot was weighed into an open container. A known amount of the test compound was dissolved or suspended in an organic solvent and applied by spraying to this cover soil. The cover soil was thoroughly mixed to distribute the test compound throughout the cover soil, and was then applied as a cover layer over the seeds. Untreated soil was used as a cover layer for control pots. After treatment the plants were placed in a greenhouse where they received 0.64 cm of overhead irrigation. All subsequent watering consisted of a light overhead mist and/or subirrigation as needed for germination and growth. Tables 9 and 10 below relate to warm season plant species which were placed after pre-emergence treatment in a greenhouse with a 30/21° C. day/night temperature regime. Tables 11 and 12 below relates to cool season plant species placed after pre-emergence treatment in a greenhouse or growth chamber with an 18/13° C. day/night temperature regime. Only the compounds of Examples 1, 6, 8, 11, 13 and 15-20 were included in PPI tests.
(§3) Approximately 14 days after planting and treating, the plants were observed and herbicidal efficacy recorded as percent inhibition by comparison with untreated plants.
Additional pre-emergence and PPI tests were conducted by the procedures described above, on warm and cool season weed species in the presence of crop species, to assess herbicidal selectivity. Crop species included in warm season tests were corn (Zea mays, ZEAMX), rice (Oryza sativa, ORYSA) and soybean (Glycine max, GLYMX). Crop species included in cool season tests were wheat (Triticum aestivum, TRZAW), barley (Hordeunm vulgare, HORVX) and oilseed rape (Brassica napus, BRSNS).
Tables 15 and 16 relate to pre-emergence and PPI tests respectively on warm season species. Table 17 relates to pre-emergence tests on cool season species.

Structure (SMILES) | inhibition at 30 g/ha
CCSC(F)(F)S(=O)(=O)c1ncn(C(=O)N(CC)CC)n1 [Example 8, 1-(N,N-diethylcarbamoyl)-3-[difluoro(ethylthio)methylsulfonyl]-1,2,4-triazole] | 0%

same assay, conditions: Oryza sativa; PPI application, 100 g/ha; read-out: Percent inhibition ORYSA

Structure (SMILES) | inhibition at 100 g/ha
CCSC(F)(F)S(=O)(=O)c1ncn(C(=O)N(CC)CC)n1 [Example 8, 1-(N,N-diethylcarbamoyl)-3-[difluoro(ethylthio)methylsulfonyl]-1,2,4-triazole] | 40%

same assay, conditions: Oryza sativa; PPI application, 300 g/ha; read-out: Percent inhibition ORYSA

Structure (SMILES) | inhibition at 300 g/ha
CCSC(F)(F)S(=O)(=O)c1ncn(C(=O)N(CC)CC)n1 [Example 8, 1-(N,N-diethylcarbamoyl)-3-[difluoro(ethylthio)methylsulfonyl]-1,2,4-triazole] | 50%

same assay, conditions: Oryza sativa; PPI application, 900 g/ha; read-out: Percent inhibition ORYSA

Structure (SMILES) | inhibition at 900 g/ha
CCSC(F)(F)S(=O)(=O)c1ncn(C(=O)N(CC)CC)n1 [Example 8, 1-(N,N-diethylcarbamoyl)-3-[difluoro(ethylthio)methylsulfonyl]-1,2,4-triazole] | 70%

same assay, conditions: PPI application, 10 g/ha

Structure (SMILES) | Percent inhibition ORYSA
CCN(CC)C(=O)n1cnc(S(=O)(=O)C(F)(F)SCC(=O)OC)n1 [Example 11] | 0%

same assay, conditions: PPI application, 30 g/ha

Structure (SMILES) | Percent inhibition ORYSA
CCN(CC)C(=O)n1cnc(S(=O)(=O)C(F)(F)SCC(=O)OC)n1 [Example 11] | 0%

same assay, conditions: PPI application, 100 g/ha

Structure (SMILES) | Percent inhibition ORYSA
CCN(CC)C(=O)n1cnc(S(=O)(=O)C(F)(F)SCC(=O)OC)n1 [Example 11] | 0%

same assay, conditions: PPI application, 300 g/ha

Structure (SMILES) | Percent inhibition ORYSA
CCN(CC)C(=O)n1cnc(S(=O)(=O)C(F)(F)SCC(=O)OC)n1 [Example 11] | 40%

same assay, conditions: PPI application, 900 g/ha

Structure (SMILES) | Percent inhibition ORYSA
CCN(CC)C(=O)n1cnc(S(=O)(=O)C(F)(F)SCC(=O)OC)n1 [Example 11] | 40%

test system: SINAR (wild mustard); assay: Pre-emergence herbicidal activity, cool season; type: in vivo, Sinapis arvensis; conditions: lowest tested rate with 80% or greater inhibition; rates 300, 100, 30, 10 g/ha; about 14 days
In short: as §1

Structure (SMILES) | Pre-emergence activity GR80, SINAR
CCSC(F)(F)S(=O)(=O)c1ncn(C(=O)N(CC)CC)n1 [Example 8, 1-(N,N-diethylcarbamoyl)-3-[difluoro(ethylthio)methylsulfonyl]-1,2,4-triazole] | [empty]
CCN(CC)C(=O)n1cnc(S(=O)(=O)C(F)(F)SCC(=O)OC)n1 [Example 11] | 100 g/ha

test system: DATST (jimsonweed); assay: Pre-plant incorporated (PPI) herbicidal activity, warm season; type: in vivo, Datura stramonium; conditions: Datura stramonium; PPI application, 30 g/ha; read-out: Percent inhibition DATST
Protocol: In another set of tests, the pre-plant incorporated (PPI) activity of compounds of this invention was evaluated on the same species as for the pre-emergence tests described above. In the PPI tests the following procedure, designed to simulate PPI application, was used.
as §2, §3

Structure (SMILES) | inhibition at 30 g/ha
CCSC(F)(F)S(=O)(=O)c1ncn(C(=O)N(CC)CC)n1 [Example 8, 1-(N,N-diethylcarbamoyl)-3-[difluoro(ethylthio)methylsulfonyl]-1,2,4-triazole] | 30%

same assay, conditions: Datura stramonium; PPI application, 100 g/ha; read-out: Percent inhibition DATST

Structure (SMILES) | inhibition at 100 g/ha
CCSC(F)(F)S(=O)(=O)c1ncn(C(=O)N(CC)CC)n1 [Example 8, 1-(N,N-diethylcarbamoyl)-3-[difluoro(ethylthio)methylsulfonyl]-1,2,4-triazole] | 60%

same assay, conditions: Datura stramonium; PPI application, 300 g/ha; read-out: Percent inhibition DATST

Structure (SMILES) | inhibition at 300 g/ha
CCSC(F)(F)S(=O)(=O)c1ncn(C(=O)N(CC)CC)n1 [Example 8, 1-(N,N-diethylcarbamoyl)-3-[difluoro(ethylthio)methylsulfonyl]-1,2,4-triazole] | 100%

same assay, conditions: Datura stramonium; PPI application, 900 g/ha; read-out: Percent inhibition DATST

Structure (SMILES) | inhibition at 900 g/ha
CCSC(F)(F)S(=O)(=O)c1ncn(C(=O)N(CC)CC)n1 [Example 8, 1-(N,N-diethylcarbamoyl)-3-[difluoro(ethylthio)methylsulfonyl]-1,2,4-triazole] | 100%

same assay, conditions: PPI application, 10 g/ha

Structure (SMILES) | Percent inhibition DATST
CCN(CC)C(=O)n1cnc(S(=O)(=O)C(F)(F)SCC(=O)OC)n1 [Example 11] | 0%

same assay, conditions: PPI application, 30 g/ha

Structure (SMILES) | Percent inhibition DATST
CCN(CC)C(=O)n1cnc(S(=O)(=O)C(F)(F)SCC(=O)OC)n1 [Example 11] | 0%

same assay, conditions: PPI application, 100 g/ha

Structure (SMILES) | Percent inhibition DATST
CCN(CC)C(=O)n1cnc(S(=O)(=O)C(F)(F)SCC(=O)OC)n1 [Example 11] | 20%

same assay, conditions: PPI application, 300 g/ha

Structure (SMILES) | Percent inhibition DATST
CCN(CC)C(=O)n1cnc(S(=O)(=O)C(F)(F)SCC(=O)OC)n1 [Example 11] | 20%

same assay, conditions: PPI application, 900 g/ha

Structure (SMILES) | Percent inhibition DATST
CCN(CC)C(=O)n1cnc(S(=O)(=O)C(F)(F)SCC(=O)OC)n1 [Example 11] | 80%

same assay, conditions: pre-plant incorporated; GR80 = lowest tested rate with 80% or greater inhibition; approx. 14 days after treating; 30/21° C.

Structure (SMILES) | PPI activity (GR80) DATST
CCSC(F)(F)S(=O)(=O)c1ncn(C(=O)N(CC)CC)n1 [Example 8, 1-(N,N-diethylcarbamoyl)-3-[difluoro(ethylthio)methylsulfonyl]-1,2,4-triazole] | 100 g/ha
CCN(CC)C(=O)n1cnc(S(=O)(=O)C(F)(F)SCC(=O)OC)n1 [Example 11] | 100 g/ha
